pKd: −log10 of the molar value.

T1 sequence (P40337 54-213): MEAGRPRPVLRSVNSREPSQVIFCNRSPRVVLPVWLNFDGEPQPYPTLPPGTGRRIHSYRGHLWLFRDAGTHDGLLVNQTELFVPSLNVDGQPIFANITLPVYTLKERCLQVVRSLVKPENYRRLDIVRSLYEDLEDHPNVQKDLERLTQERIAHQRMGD
T1 sequence (Q15369 17-112, further chain): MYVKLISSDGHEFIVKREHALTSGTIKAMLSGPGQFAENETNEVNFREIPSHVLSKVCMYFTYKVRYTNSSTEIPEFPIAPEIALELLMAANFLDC
T1 sequence (Q15370 1-104 partner limits assumed): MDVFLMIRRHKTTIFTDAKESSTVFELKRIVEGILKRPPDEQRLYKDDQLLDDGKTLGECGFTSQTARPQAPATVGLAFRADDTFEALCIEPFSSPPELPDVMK

The first assay concerns the target T1, VHL-Elongin C-Elongin B (VCB) complex (Homo sapiens, UniProt P40337).
T1 construct: gene (residues 54-213) was cloned into pET28a(+) vector; Elongin C (residues 17-112); His-tag (cleaved yes); made in house; host or cells: E. coli BL21(DE3), M9 minimal media with 15NH4Cl
The assay is described as follows: Protein-observed NMR (1H-15N TROSY) titration of fragment hits against 15N-labeled VCB. The class given is binding.
Details: not given
The protocol:
All NMR experiments were carried out at 310K using a 900 MHz Bruker Avance III spectrometer equipped with a TXI/TCI CryoProbe and a Bruker SampleJet. Two-dimensional 1H-15N TROSY spectra of VCB complex were recorded using 30-minute acquisition time and analyzed using Topspin 4.1.4 (Bruker). […]
screened as mixtures of 12 fragments prepared in twelve 96-well plates. Each NMR sample was made of 100µM of 15N-labeled VCB, 800µM of each fragment, and 5% DMSO-d6 for spectrometer locking in 3mm-diameter NMR tubes (Bruker). Hit mixtures were identified by comparing the chemical shifts of the backbone resonances to a ligand-free VCB spectrum and then deconvoluted by screening individual fragments.
TROSY titration experiments were used to determine binding affinity of the fragment hits identified from the screen. […]
Usually pKd stands for the negative decadic logarithm of the Kd, by convention in mol/L. For `CC(C)N1CCN(Cc2ccccc2F)CC1` [compound 14], the pKd was 2.43.

Staying with this assay, now noted: TROSY titration, fragment 0.31-10 mM, 310K, Hill's equation model; hits grouped by binding pocket (A unknown, B VHL cryptic, C Elongin C, D HIF1α); read-out: NMR-derived binding affinity (KD).
For the compound `O=C1CCc2cc([N+](=O)[O-])ccc2N1` [compound 1], the pKd was 2.77.
For `Nc1nc2ccccc2n1Cc1ccccc1` [compound 2], the pKd is 3.31.
On to `CC(C)OC(=O)c1ccc(Cl)c(N)c1` [compound 4], for which the pKd is 2.25.
The same measure, in the same setting: to `CC(C)NC(=O)c1cc2ccc3cccnc3c2[nH]1` [compound 5] belongs 2.09; to `Clc1ccc(CN2CCCCC2)cc1Cl` [compound 6], 3.35; to `CC(=O)c1cccc(NC(=O)c2cccs2)c1` [compound 7], 3.33.
Regarding `SC1=NC2(CCCC2)N=C1c1ccccc1` [compound 8], the pKd is 3.28.
`CC(=O)N1CCc2ccc([N+](=O)[O-])cc21` [compound 9]: the pKd was 3.18.
On to `O=C(Nc1ccc(F)c(Cl)c1)c1cnccn1` [compound 10], for which the pKd is 3.15.
On to `Cc1cc(Nc2cccc(O)c2)c2cccc(C)c2n1` [compound 11], for which the pKd was 2.80.
The same measure, in the same setting: as for `CN(C)CCN(C)Cc1ccc(F)cc1` [compound 12], the figure is 2.89; as for `Nc1ccc2c(c1)ncn2CCO` [compound 15], 2.40.
As for `Cc1nc2cc(C(=O)O)ccc2n1C` [compound 16], the pKd is 2.22.
With `O=C(O)c1ccnc2[nH]cnc12` [compound 17], the pKd is 2.12.

These data come from paper PMC12358976, “NMR-Based Fragment Screen of the von Hippel-Lindau Elongin C&B Complex” (ACS Medicinal Chemistry Letters, 2025).
